From US11564912B2, “Methods for treating irritable bowel syndrome (IBS)” (Salix Pharmaceuticals, Inc., priority 2008, dated 2023)

How the values were obtained:
subjects with dIBS = assay: Study of rifaximin BID in subjects with dIBS: adequate relief of IBS symptoms and bloating; format: in vivo, human; conditions: rifaximin 550 mg BID 14 days, patients with dIBS
[1] = test system: patients with nonconstipation irritable bowel syndrome (non-C IBS); assay: Trial of rifaximin 550 mg TID for 14 days with 10-week follow-up (Example 5; Study 2 of Example 6); format: in vivo, human
[2] = as previously disclosed by Applicants; cited from earlier work
[3] = test system: patients with nonconstipation irritable bowel syndrome (non-C IBS); assay: Trial of rifaximin 550 mg TID for 14 days with 10-week follow-up (Example 5; Study 2 of Example 6); format: in vivo, human; remark: listed apart in the source
Description: A measure of efficacy is based on subjects' answers to the Weekly Subject Global Assessment (SGA) questions over the 4 week study duration in relation to their IBS symptoms. […] Another measure of efficacy is based on subjects' answers to the Weekly Subject Global Assessment (SGA) question over the 4 week study duration in relation to their IBS symptom of bloating. The SGA question is asked weekly as follows: “In the past 7 days, have you had adequate relief of your IBS symptom of bloating?” (Yes/No). […] Other measures of efficacy include the changes in dIBS symptoms from baseline to each week of the 4 weeks in the study (e.g., abdominal pain and discomfort, bloating, number of stools per day, stool consistency, urgency with loose or watery stools).
The primary efficacy endpoint of the study was the proportion of subjects who achieve adequate relief of IBS symptoms for at least 2 weeks during 10 the first 4 weeks of the 10-week follow-up phase.
Two measures of efficacy were assessed.
Subjects were questioned on the relief of overall IBS symptoms and bloating. […] The analyses defined success as a “yes” response to questions regarding adequate relief.
Assessment (SGA) questions over the 4 week study duration in relation to their IBS symptoms. […] Another measure of efficacy is based on subjects' answers to the Weekly Subject Global Assessment (SGA) question over the 4 week study duration in relation to their IBS symptom of bloating. The SGA question is asked weekly as follows: “In the past 7 days, have you had adequate relief of your IBS symptom of bloating'?” (Yes/No).
All subpopulations in the study responded to therapy. Baseline severity was determined during screening for Abdominal Pain/Discomfort and Bloating, and the number, type (normal, hard, loose) and urgency of bowel movements. Duration of effect was assessed in a ten week follow-up period.
A measure of efficacy is based on subjects' answers to the Weekly Subject Global Assessment (SGA) questions over the study duration in relation to their IBS symptoms.

[4] = oral administration; Descombe et al. 1994; cited from earlier work
[5] = Age Group: <65, Rifaximin 550 mg TID (N = 281)
[6] = Age Group: >=65, Rifaximin 550 mg TID
[7] = Gender: Female, Rifaximin 550 mg TID (N = 226)
[8] = Gender: Male, Rifaximin 550 mg TID (N = 85)
[9] = IBS Subtype: Alternating-predominant, Rifaximin 550 mg TID
[10] = IBS Subtype: Diarrhoea-predominant, Rifaximin 550 mg TID
[11] = Population: ITT, Rifaximin 550 mg TID (N = 315)
[12] = Population: PP, Rifaximin 550 mg TID (N = 311)
[13] = Population: PP, Rifaximin 550 mg TID (N = 311), Weeks 3 through 6
[14] = Race: Non-White, Rifaximin 550 mg TID (N = 31)
[15] = Race: White, Rifaximin 550 mg TID (N = 280)
[16] = Rifaximin 550 mg TID (N = 315), weekly SGA, at least 2 of Weeks 3 through 6, LOCF
[17] = Study 2, at least 2 out of 4 weeks adequate relief during weeks 3 through 6 (weekly question)
[18] = Study 2, at least 2 weeks during PEP

(2S,16Z,18E,20S,21S,22R, 23R,24R,25S,26S,27S,28E)-5,6,21,23,25 Pentahydroxy-27-methoxy -2,4,11,16,20,22,24,26-octamethyl-2,7-(epoxypentadeca-(1,11,13)trienimino)benzofuro (4,5-e) pyrido(1,2,-a) benzimidazole-1,15(2H)-dione,25-acetate [Rifaximin]
Tolerability, incidence of adverse events compared with placebo (subjects with dIBS): well tolerated | Subjects with skin or subcutaneous tissue disorders ([1]; 550 mg rifaximin TID): 1.3% | Early discontinuation of study, primary reason Adverse Event/Serious Adverse Event ([1]; Rifaximin 550 mg TID, randomized subjects (316)): 0 n (%) | Rifaximin exposure in healthy subjects compared with subjects having hepatic encephalopathy [2]: significantly lower | Adequate relief of IBS related symptoms (SGA) and IBS-related bloating (IBS-B) ([3]; 550 mg TID for 2 weeks): statistically significant relief | Adequate Relief of IBS symptom of Bloating: Failure [3, 5]: 171 (60.9%) N (%) | Adequate Relief of IBS symptom of Bloating: Success [3, 5]: 110 (39.1%) N (%) | Adequate Relief of IBS symptoms: Failure [3, 5]: 171 (60.9%) N (%) | Adequate Relief of IBS symptoms: Success [3, 5]: 110 (39.1%) N (%) | Adequate Relief of IBS symptom of Bloating: Failure [3, 6]: 16 (53.3%) N (%) | Adequate Relief of IBS symptom of Bloating: Success [3, 6]: 14 (46.7%) N (%) | Adequate Relief of IBS symptoms: Failure [3, 6]: 16 (53.3%) N (%) | Adequate Relief of IBS symptoms: Success [3, 6]: 14 (46.7%) N (%) | Adequate Relief of IBS symptom of Bloating: Failure [3, 7]: 128 (56.6%) N (%) | Adequate Relief of IBS symptom of Bloating: Success [3, 7]: 98 (43.4%) N (%) | Adequate Relief of IBS symptoms: Failure [3, 7]: 130 (57.5%) N (%) | Adequate Relief of IBS symptoms: Success [3, 7]: 96 (42.5%) N (%) | Adequate Relief of IBS symptom of Bloating: Failure [3, 8]: 59 (69.4%) N (%) | Adequate Relief of IBS symptom of Bloating: Success [3, 8]: 26 (30.6%) N (%) | Adequate Relief of IBS symptoms: Failure [3, 8]: 57 (67.1%) N (%) | Adequate Relief of IBS symptoms: Success [3, 8]: 28 (32.9%) N (%) | Adequate Relief of IBS symptom of Bloating: Failure [3, 9]: 19 (55.9%) N (%) | Adequate Relief of IBS symptom of Bloating: Success [3, 9]: 15 (44.1%) N (%) | Adequate Relief of IBS symptoms: Failure [3, 9]: 21 (61.8%) N (%) | Adequate Relief of IBS symptoms: Success [3, 9]: 13 (38.2%) N (%) | Adequate Relief of IBS symptom of Bloating: Failure [3, 10]: 168 (60.6%) N (%) | Adequate Relief of IBS symptom of Bloating: Success [3, 10]: 109 (39.4%) N (%) | Adequate Relief of IBS symptoms: Failure [3, 10]: 166 (59.9%) N (%) | Adequate Relief of IBS symptoms: Success [3, 10]: 111 (40.1%) N (%) | Adequate Relief of IBS symptom of Bloating Based on Daily Measures: Failure [3, 11]: 182 (57.8%) N (%) | Adequate Relief of IBS symptom of Bloating Based on Daily Measures: Success [3, 11]: 133 (42.2%) N (%) | Adequate Relief of IBS symptoms Based on Daily Measures: Failure [3, 11]: 200 (63.5%) N (%) | Adequate Relief of IBS symptoms Based on Daily Measures: Success [3, 11]: 115 (36.5%) N (%) | Adequate Relief of IBS symptom of Bloating Based on Daily Measures: Failure [3, 12]: 180 (57.9%) N (%) | Adequate Relief of IBS symptom of Bloating Based on Daily Measures: Success [3, 12]: 131 (42.1%) N (%) | Adequate Relief of IBS symptoms Based on Daily Measures: Failure [3, 12]: 196 (63.0%) N (%) | Adequate Relief of IBS symptoms Based on Daily Measures: Success [3, 12]: 115 (37.0%) N (%) | Adequate Relief of IBS symptom of Bloating: Failure [3, 13]: 187 (60.1%) N (%) | Adequate Relief of IBS symptom of Bloating: Success [3, 13]: 124 (39.9%) N (%) | Adequate Relief of IBS symptoms: Failure [3, 13]: 187 (60.1%) N (%) | Adequate Relief of IBS symptoms: Success [3, 13]: 124 (39.9%) N (%) | Adequate Relief of IBS symptom of Bloating: Failure [3, 14]: 17 (54.8%) N (%) | Adequate Relief of IBS symptom of Bloating: Success [3, 14]: 14 (45.2%) N (%) | Adequate Relief of IBS symptoms: Failure [3, 14]: 16 (51.6%) N (%) | Adequate Relief of IBS symptoms: Success [3, 14]: 15 (48.4%) N (%) | Adequate Relief of IBS symptom of Bloating: Failure [3, 15]: 170 (60.7%) N (%) | Adequate Relief of IBS symptom of Bloating: Success [3, 15]: 110 (39.3%) N (%) | Adequate Relief of IBS symptoms: Failure [3, 15]: 171 (61.1%) N (%) | Adequate Relief of IBS symptoms: Success [3, 15]: 109 (38.9%) N (%) | Adequate Relief of IBS symptom of Bloating: Failure [3, 16]: 190 (60.3%) n (%) | Adequate Relief of IBS symptom of Bloating: Success [3, 16]: 125 (39.7%) n (%) | Adequate Relief of IBS symptoms: Failure [3, 16]: 190 (60.3%) n (%) | Adequate Relief of IBS symptoms: Success [3, 16]: 125 (39.7%) n (%) | Daily abdominal pain <2, responders ([3]; Study 2, <2 for at least 50% of days in a week for at least 2 weeks during PEP): 39% | Global IBS symptoms, responders [3, 17]: 41% | IBS symptom of Bloating, responders [3, 17]: 41% | Abdominal Pain reduction of 2 point in mean, responders [3, 18]: 25% | Abdominal Pain reduction of 2 point in median, responders [3, 18]: 41% | Abdominal Pain reduction of 3 point in mean, responders [3, 18]: 6% vs 7% | Abdominal Pain reduction of 3 point in median, responders [3, 18]: 21% | Overall reduction of mean weekly abdominal pain by >=25%, responders [3, 18]: 58% | Overall reduction of mean weekly abdominal pain by >=50%, responders [3, 18]: 35% | Overall reduction of mean weekly abdominal pain by >=75%, responders [3, 18]: 14% | Overall reduction of median weekly abdominal pain by >=25%, responders [3, 18]: 62% | Overall reduction of median weekly abdominal pain by >=50%, responders [3, 18]: 44% | Overall reduction of median weekly abdominal pain by >=75%, responders [3, 18]: 20% | Abdominal pain reduction of 1 point in mean, responders ([3]; Study 2, weekly mean vs baseline for at least 2 weeks during PEP): 52% | Abdominal pain reduction of 1 point in median, responders ([3]; Study 2, weekly median vs baseline for at least 2 weeks during PEP): 62% | % with decrease in SF (stool frequency) ([3]; Week 1, Rifaximin 550 mg TID): 14.4% | % with decrease in SF (stool frequency) ([3]; Week 2, Rifaximin 550 mg TID): 20.6% | % with decrease in SF (stool frequency) ([3]; Week 3, Rifaximin 550 mg TID): 22.2% | % with decrease in SF (stool frequency) ([3]; Week 4, Rifaximin 550 mg TID): 21.6% | % with decrease in SF (stool frequency) ([3]; Week 5, Rifaximin 550 mg TID): 25.7% | % with decrease in SF (stool frequency) ([3]; Week 6, Rifaximin 550 mg TID): 22.9% | % with decrease in SF (stool frequency) ([3]; Week 7, Rifaximin 550 mg TID): 23.8% | % with decrease in SF (stool frequency) ([3]; Week 8, Rifaximin 550 mg TID): 24.4% | % with decrease in SF (stool frequency) ([3]; Week 9, Rifaximin 550 mg TID): 25.4% | % with decrease in SF (stool frequency) ([3]; Week 10, Rifaximin 550 mg TID): 26.7% | % with decrease in SF (stool frequency) ([3]; Week 11, Rifaximin 550 mg TID): 25.4% | % with decrease in SF (stool frequency) ([3]; Week 12, Rifaximin 550 mg TID): 27.0% | Systemic absorption [4]: negligible
